Test systems include RPMI-8226 leukemia; OVCAR-8 ovarian; A549 NSCLC; RXF 393 renal; NCI-H23 lung; HOP-92 NSCLC; MDA-MB-231 breast; UO-31 renal.
Common to all, as to experiment: NCI tumour cell line growth inhibition, 48 h

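How tested: cells in 96-well plates exposed to compound for 48 hours at five concentrations. Here, GI50 denotes the concentration required for 50% inhibition of growth. Definition used: TGI = concentration required for complete inhibition of growth.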 Some results are limits rather than exact numbers.

Turning to `COc1cc(C2=N/C(=C/c3cccs3)C(=O)O2)cc(OC)c1OC`, the TGI in the assay on RPMI-8226 leukemia, with OVCAR-8 ovarian, in the assay on A549 NSCLC, in the assay with RXF 393 renal, in the assay on NCI-H23 lung and in the assay on HOP-92 NSCLC was greater than 100 µM each time. The TGI in the assay on MDA-MB-231 breast was greater than 100 µM.
As to `O=C(N/N=C/c1ccc(O)cc1O)c1cccc(Nc2ccnc(C(F)(F)F)c2)c1`, the GI50 with UO-31 renal was 1440 nM; in the assay on RPMI-8226 leukemia, 3550 nM; in the assay with OVCAR-8 ovarian it was 716 nM; with A549 NSCLC, 6.44 µM; with RXF 393 renal, 2480 nM; in the assay on NCI-H23 lung, 3800 nM. In addition, the GI50 in the assay with HOP-92 NSCLC was 3440 nM; in the assay on MDA-MB-231 breast it was 1080 nM. In addition, the TGI is 33.6 µM in the assay with UO-31 renal; 14.9 µM with RPMI-8226 leukemia; 32.9 µM in the assay with OVCAR-8 ovarian; greater than 72 µM in the assay on A549 NSCLC; 17.4 µM in the assay with RXF 393 renal; 27.4 µM in the assay on NCI-H23 lung. In addition, the TGI with HOP-92 NSCLC was greater than 48.2 µM; in the assay with MDA-MB-231 breast it was 51.8 µM.
For the compound `[N-]=[N+]=NCCCn1c2c(c3ccc([N+](=O)[O-])cc3c1=O)C(=O)c1cc(F)ccc1-2`, the GI50 is 807 nM in the assay on UO-31 renal; 237 nM in the assay with RPMI-8226 leukemia; 2670 nM in the assay on OVCAR-8 ovarian; 5.14 µM in the assay on A549 NSCLC; 4320 nM in the assay with RXF 393 renal; 2690 nM in the assay with NCI-H23 lung. Further, the GI50 with MDA-MB-231 breast was 30300 nM. In addition, the TGI in the assay on UO-31 renal was 12.6 µM; in the assay on RPMI-8226 leukemia, 1.28 µM; with OVCAR-8 ovarian, greater than 100 µM; in the assay on A549 NSCLC, greater than 100 µM; in the assay on RXF 393 renal, 54.6 µM; in the assay on NCI-H23 lung, 19 µM. For the same compound, the TGI in the assay with MDA-MB-231 breast is greater than 100 µM.
For `Fc1cccc(-n2ccc(-c3ccccc3)nc2=S)c1`, the GI50 is 15100 nM in the assay on UO-31 renal; 47100 nM in the assay with RPMI-8226 leukemia; 26600 nM in the assay with OVCAR-8 ovarian; 31.5 µM in the assay on A549 NSCLC; 15800 nM with RXF 393 renal; 15000 nM in the assay with NCI-H23 lung. The GI50 with HOP-92 NSCLC was 862 nM; in the assay on MDA-MB-231 breast, 27900 nM. In addition, the TGI was 30 µM in the assay on UO-31 renal; greater than 100 µM in the assay with RPMI-8226 leukemia; greater than 57.7 µM with OVCAR-8 ovarian; greater than 87.3 µM in the assay on A549 NSCLC; 30 µM with RXF 393 renal; 33.2 µM with NCI-H23 lung. The TGI was 41.6 µM with HOP-92 NSCLC and greater than 100 µM in the assay on MDA-MB-231 breast.
For the compound `CN(C)CCNC(=O)Cn1cnc2cccc([N+](=O)[O-])c2c1=O`, the TGI with UO-31 renal, in the assay on RPMI-8226 leukemia, in the assay on A549 NSCLC, in the assay with RXF 393 renal and with NCI-H23 lung was greater than 100 µM throughout.
Turning to `O=C(O)c1c(=O)cccc2ssc12`, the GI50 is 1660 nM with UO-31 renal; 2190 nM with RPMI-8226 leukemia; 1760 nM with OVCAR-8 ovarian; 1.86 µM in the assay with A549 NSCLC; 1910 nM in the assay on RXF 393 renal; 1750 nM in the assay on NCI-H23 lung. Besides, the GI50 with HOP-92 NSCLC is 1860 nM; with MDA-MB-231 breast, 2290 nM. Further, the TGI amounted to 3.44 µM with UO-31 renal; 5.66 µM with RPMI-8226 leukemia; 3.18 µM with OVCAR-8 ovarian; 3.77 µM in the assay with A549 NSCLC; 3.39 µM in the assay with RXF 393 renal; 3.45 µM in the assay with NCI-H23 lung. For the same compound, the TGI in the assay on HOP-92 NSCLC is 3.79 µM; in the assay on MDA-MB-231 breast, 4.67 µM.
As to `Cc1cc(-c2ccccn2)cc(C)c1/C=C/c1cncc(-c2nn[nH]n2)c1`, the GI50 in the assay on UO-31 renal is greater than 25000 nM; in the assay with RPMI-8226 leukemia, greater than 25000 nM; in the assay on OVCAR-8 ovarian, greater than 25000 nM; with A549 NSCLC, greater than 25 µM; in the assay on RXF 393 renal, greater than 25000 nM; with NCI-H23 lung it was greater than 25000 nM. Moreover, the GI50 in the assay on HOP-92 NSCLC is greater than 18400 nM; with MDA-MB-231 breast, greater than 25000 nM. The TGI with UO-31 renal, with RPMI-8226 leukemia, with OVCAR-8 ovarian, in the assay with A549 NSCLC, in the assay on RXF 393 renal and in the assay with NCI-H23 lung was greater than 25 µM in each case. Also, the TGI with HOP-92 NSCLC and in the assay with MDA-MB-231 breast was greater than 25 µM each time.
In the case of `CC(=O)O[C@H](C[C@H](C(C)C)N(C)C(=O)[C@@H](NC(=O)[C@H]1CCCN1C)C(C)C)c1nc(C(=O)N[C@@H](Cc2ccccc2)C[C@H](C)C(=O)O)c(C)s1`, the GI50 in the assay on UO-31 renal is 11 nM; in the assay with RPMI-8226 leukemia it was less than 1.67 nM; with OVCAR-8 ovarian, 3.3 nM; in the assay with A549 NSCLC it was 0.0155 µM; with RXF 393 renal it was less than 1.67 nM; with NCI-H23 lung, 5.31 nM. The GI50 in the assay with HOP-92 NSCLC is 12400 nM; with MDA-MB-231 breast, 2.92 nM. Also, the TGI in the assay with UO-31 renal, in the assay with RPMI-8226 leukemia, in the assay with OVCAR-8 ovarian, in the assay with A549 NSCLC, in the assay on RXF 393 renal and in the assay on NCI-H23 lung was greater than 16.7 µM each time. The TGI in the assay with HOP-92 NSCLC and in the assay with MDA-MB-231 breast was greater than 16.7 µM each time.
For the compound `COc1cc(-c2csc(NC(=O)Nc3ccc(C(F)(F)F)cc3)n2)cc(OC)c1OC`, the GI50 in the assay on UO-31 renal was 1770 nM; in the assay with RPMI-8226 leukemia, 2260 nM; with OVCAR-8 ovarian it was 2970 nM; in the assay with A549 NSCLC it was 2.74 µM; with RXF 393 renal, 2180 nM; in the assay with NCI-H23 lung, 2480 nM. In addition, the GI50 in the assay on HOP-92 NSCLC was 1610 nM; in the assay on MDA-MB-231 breast, 1550 nM. In addition, the TGI in the assay with UO-31 renal came to 5.29 µM; with RPMI-8226 leukemia, 8.69 µM; in the assay with OVCAR-8 ovarian, 10.5 µM; in the assay on A549 NSCLC it was 11.7 µM; in the assay with RXF 393 renal it was 5.89 µM; in the assay on NCI-H23 lung, 8.81 µM. The TGI in the assay with HOP-92 NSCLC was found to be 4.73 µM; in the assay with MDA-MB-231 breast, 3.69 µM.
`O=C1/C(=C/c2ccc(Cl)cc2)CCC/C1=C\c1ccc(Cl)cc1`: the GI50 is 10800 nM in the assay on UO-31 renal; 2100 nM in the assay with RPMI-8226 leukemia; 3640 nM with OVCAR-8 ovarian; 3.63 µM with A549 NSCLC; 1950 nM in the assay with RXF 393 renal; 3060 nM in the assay on NCI-H23 lung. The GI50 in the assay on HOP-92 NSCLC was greater than 100000 nM; in the assay with MDA-MB-231 breast, 9830 nM. The TGI in the assay with UO-31 renal was greater than 100 µM; with RPMI-8226 leukemia, 6.32 µM; in the assay on OVCAR-8 ovarian, greater than 100 µM; with A549 NSCLC, greater than 100 µM; with RXF 393 renal, 3.66 µM; in the assay with NCI-H23 lung, greater than 100 µM. Further, the TGI in the assay on HOP-92 NSCLC and in the assay with MDA-MB-231 breast was greater than 100 µM throughout.

The values are drawn from PubChem BioAssay (NCI).
